Reference: patent US9580430B2, “9H-pyrimido[4,5-B]indoles and related analogs as BET bromodomain inhibitors” (THE REGENTS OF THE UNIVERSITY OF MICHIGAN, priority 2014, dated 2017)

Columns and labels:
[1] = target: T1, recombinant BRD4 BD1 (Homo sapiens, UniProt O60885); test: Competitive fluorescence-polarization (FP) binding assay, BRD4 BD1; conditions: competitive FP assay; protein 10 nM, probe […]; read-out: IC50 (nM) BRD4 BD1; further: probe 1.5 nM
T1 construct: for recombinant BRD4 BD1 and BRD4 BD2 proteins
How it was run: (§1)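 FP competition with FAM-labelled probe (ZBA248 or BRD-1F) against preincubated protein/probe complex; BD1 at 10 nM and BD2 at 6 nM final, in 100 mM potassium phosphate pH 6.5, 0.01% Triton X-100. 30 min, room temperature. IC50 by nonlinear regression; Ki also derived, using probe Kd from protein saturation.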

[2] = system: MDA-MB-436; test: Cell growth inhibition, MDA-MB-436 breast cancer cells (WST-8); assay type: cell-based; conditions: Homo sapiens, MDA-MB-436, 96 h; 4 days; read-out: IC50 (nM) MDA-MB-436 Cell Line (WST assay)
How it was run: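 IC50 was computed from WST-8-based cell counting in MDA-MB-436 cells, with absorbance read at 450 nm.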

[3] = target: T2, recombinant BRD4 BD2 (Homo sapiens, UniProt O60885); test: Competitive fluorescence-polarization (FP) binding assay, BRD4 BD2; conditions: competitive FP assay; protein 6 nM, probe […]; read-out: IC50 (nM) BRD4 BD2; further: probe 1.5 nM
T2 construct: for recombinant BRD4 BD1 and BRD4 BD2 proteins
How it was run: as §1

[4] = system: MOLM-13; test: Cell growth inhibition, MOLM-13 leukemia cells (CellTiter-Glo); assay type: cell-based; conditions: Homo sapiens, MOLM-13, 96 h; 4 days; read-out: IC50 (nM) MOLM-13 Cell Line (CellTiter-Glo assay)
How it was run: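 MOLM-13 leukemia cells treated with compounds; viability read by CellTiter-Glo luminescence after 10-20 min reagent incubation at room temperature. IC50 derived from luminescent signal.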

## COc1cc2c(cc1-c1c(C)noc1C)[nH]c1nc(C)nc(Nc3cccc(Cl)c3)c12 [Cpd. No. 97, N-(3-chlorophenyl)-7-(3,5-dimethylisoxazol-4-yl)-6-methoxy-2-methyl-9H-pyrimido[4,5-b]indol-4-amine]
[1]
  IC50: 34 nM
[2]
  IC50: 180 nM
[3]
  IC50: 8 nM
[4]
  IC50: 43 nM

## CCn1nc(C2CC2)c(C)c1Nc1nc(C)nc2[nH]c3cc(-c4c(C)noc4C)c(OC)cc3c12 [Cpd. No. 145, N-(3-Cyclopropyl-1-ethyl-4-methyl-1H-pyrazol-5-yl)-7-(3,5-dimethylisoxazol-4-yl)-6-methoxy-2-methyl-9H-pyrimido[4,5-b]indol-4-amine]
[1]
  IC50: 18.9 nM
[2]
  IC50: 170 nM
[3]
  IC50: 56.9 nM
[4]
  IC50: 69.5 nM

## COc1cc2c(cc1-c1c(C)noc1C)[nH]c1nc(C)nc(NC3CCCCC3)c12 [Cpd. No. 112, N-cyclohexyl-7-(3,5-dimethylisoxazol-4-yl)-6-methoxy-2-methyl-9H-pyrimido[4,5-b]indol-4-amine]
[1]
  IC50: 460 nM
[2]
  IC50: 2430 nM
[3]
  IC50: 395 nM
[4]
  IC50: 15000 nM

## COc1cc2c(cc1-c1c(C)noc1C)[nH]c1nc(C)nc(Nc3cc(C)n(C)n3)c12 [Cpd. No. 115, N-(1,5-Dimethyl-1H-pyrazol-3-yl)-7-(3,5-dimethylisoxazol-4-yl)-6-methoxy-2-methyl-9H-pyrimido[4,5-b]indol-4-amine]
[1]
  IC50: 23.2 nM
[2]
  IC50: 81.1 nM
[3]
  IC50: 136 nM
[4]
  IC50: 30.7 nM

## COc1cc2c(cc1-c1c(C)noc1C)[nH]c1nc(C)nc(Nc3cccc4c3CCO4)c12 [Cpd. No. 234, N-(2,3-dihydrobenzofuran-4-yl)-7-(3,5-dimethylisoxazol-4-yl)-6-methoxy-2-methyl-9H-pyrimido[4,5-b]indol-4-amine]
[1]
  IC50: 25 nM
[2]
  IC50: 139 nM
[3]
  IC50: 25 nM
[4]
  IC50: 34 nM

## CCn1nc(C)cc1Nc1nc(C)nc2[nH]c3cc(-c4c(C)noc4C)c(OC)cc3c12 [Cpd. No. 116, 7-(3,5-Dimethylisoxazol-4-yl)-N-(1-ethyl-3-methyl-1H-pyrazol-5-yl)-6-methoxy-2-methyl-9H-pyrimido[4,5-b]indol-4-amine]
[1]
  IC50: 14 nM
[2]
  IC50: 26.3 nM
[3]
  IC50: 9.6 nM
[4]
  IC50: 15.4 nM

## COc1cc2c(cc1-c1c(C)noc1C)[nH]c1nc(C)nc(Nc3cnn4c3CCCC4)c12 [Cpd. No. 139, 7-(3,5-Dimethylisoxazol-4-yl)-6-methoxy-2-methyl-N-(4,5,6,7-tetrahydropyrazolo[1,5-a]pyridin-3-yl)-9H-pyrimido[4,5-b]indol-4-amine]
[1]
  IC50: 16.3 nM
[2]
  IC50: 110 nM
[3]
  IC50: 16.5 nM
[4]
  IC50: 49.2 nM

## COc1cc2c(cc1-c1c(C)noc1C)[nH]c1nc(C)nc(Nc3ccc4c(c3)N(C)CC4)c12 [Cpd. No. 232, 7-(3,5-dimethylisoxazol-4-yl)-6-methoxy-2-methyl-N-(1-methylindolin-6-yl)-9H-pyrimido[4,5-b]indol-4-amine]
[1]
  IC50: 29 nM
[2]
  IC50: 238 nM
[3]
  IC50: 52 nM
[4]
  IC50: 62 nM

## COc1cc2c(cc1-c1c(C)noc1C)[nH]c1nc(C)nc(Nc3cccc4c3CCN4)c12 [Cpd. No. 231, 7-(3,5-dimethylisoxazol-4-yl)-N-(indolin-4-yl)-6-methoxy-2-methyl-9H-pyrimido[4,5-b]indol-4-amine]
[1]
  IC50: 35 nM
[2]
  IC50: 79 nM
[3]
  IC50: 44 nM
[4]
  IC50: 28 nM

## COc1cc2c(cc1-c1c(C)noc1C)[nH]c1nc(C)nc(Nc3cccc(C)n3)c12 [Cpd. No. 111, 7-(3,5-dimethylisoxazol-4-yl)-6-methoxy-2-methyl-N-(6-methylpyridin-2-yl)-9H-pyrimido[4,5-b]indol-4-amine]
[1]
  IC50: 312 nM
[2]
  IC50: 1100 nM
[3]
  IC50: 218 nM
[4]
  IC50: 7 nM

## COc1cc2c(cc1-c1c(C)noc1C)[nH]c1nc(C)nc(Nc3cn(C)c4ncccc34)c12 [Cpd. No. 227, 7-(3,5-dimethylisoxazol-4-yl)-6-methoxy-2-methyl-N-(1-methyl-1H-pyrrolo[2,3-b]pyridin-3-yl)-9H-pyrimido[4,5-b]indol-4-amine]
[1]
  IC50: 14 nM
[2]
  IC50: 62 nM
[3]
  IC50: 22 nM
[4]
  IC50: 31 nM

## COc1cc2c(cc1-c1c(C)noc1C)[nH]c1nc(C)nc(Nc3cc(C(C)C)nn3C)c12 [Cpd. No. 65, 7-(3,5-Dimethylisoxazol-4-yl)-N-(3-isopropyl-1-methyl-1H-pyrazol-5-yl)-6-methoxy-2-methyl-9H-pyrimido[4,5-b]indol-4-amine]
[1]
  IC50: 6.1 nM
[2]
  IC50: 26 nM
[3]
  IC50: 4.1 nM
[4]
  IC50: 11.7 nM

## COc1cc2c(cc1-c1c(C)noc1C)[nH]c1nc(C)nc(Nc3cc(C)cc(C)c3)c12 [Cpd. No. 237, 7-(3,5-dimethylisoxazol-4-yl)-N-(3,5-dimethylphenyl)-6-methoxy-2-methyl-9H-pyrimido[4,5-b]indol-4-amine]
[1]
  IC50: 10 nM
[2]
  IC50: 72 nM
[3]
  IC50: 5 nM
[4]
  IC50: 41 nM

## CCn1nc(C(F)(F)F)cc1Nc1nc(C)nc2[nH]c3cc(-c4c(C)noc4C)c(OC)cc3c12 [Cpd. No. 146, 7-(3,5-Dimethylisoxazol-4-yl)-N-(1-ethyl-3-(trifluoromethyl)-1H-pyrazol-5-yl)-6-methoxy-2-methyl-9H-pyrimido[4,5-b]indol-4-amine]
[1]
  IC50: 13.7 nM
[2]
  IC50: 39.2 nM
[3]
  IC50: 7.7 nM
[4]
  IC50: 26 nM

## COc1cc2c(cc1-c1c(C)noc1C)[nH]c1nc(C)nc(Nc3cnc(C)n3C)c12 [Cpd. No. 171, N-(1,2-dimethyl-1H-imidazol-5-yl)-7-(3,5-dimethylisoxazol-4-yl)-6-methoxy-2-methyl-9H-pyrimido[4,5-b]indol-4-amine]
[1]
  IC50: 153 nM
[2]
  IC50: 1530 nM
[3]
  IC50: 79.5 nM
[4]
  IC50: 609 nM

## COc1cc2c(cc1-c1c(C)noc1C)[nH]c1nc(C)nc(Nc3n[nH]c4ccccc34)c12 [Cpd. No. 58, 7-(3,5-Dimethylisoxazol-4-yl)-N-(1H-indazol-3-yl)-6-methoxy-2-methyl-9H-pyrimido[4,5-b]indol-4-amine]
[1]
  IC50: 11 nM
[2]
  IC50: 54.6 nM
[3]
  IC50: 22.6 nM
[4]
  IC50: 32 nM

## CCc1nn(C)c(CC)c1Nc1nc(C)nc2[nH]c3cc(-c4c(C)noc4C)c(OC)cc3c12 [Cpd. No. 240, N-(3,5-diethyl-1-methyl-1H-pyrazol-4-yl)-7-(3,5-dimethylisoxazol-4-yl)-6-methoxy-2-methyl-9H-pyrimido[4,5-b]indol-4-amine]
[1]
  IC50: 13 nM
[2]
  IC50: 46 nM
[3]
  IC50: 20 nM
[4]
  IC50: 20 nM

## COc1cc2c(cc1-c1c(C)noc1C)[nH]c1nc(C)nc(Nc3c(C(C)C)cnn3C)c12 [Cpd. No. 79, 7-(3,5-dimethylisoxazol-4-yl)-N-(4-isopropyl-1-methyl-1H-pyrazol-5-yl)-6-methoxy-2-methyl-9H-pyrimido[4,5-b]indol-4-amine]
[1]
  IC50: 9.3 nM
[2]
  IC50: 121 nM
[3]
  IC50: 1.8 nM
[4]
  IC50: 43.9 nM

## COc1cc2c(cc1-c1c(C)noc1C)[nH]c1nc(C)nc(Nc3c(-c4ccccc4)noc3C)c12 [Cpd. No. 98, N-(7-(3,5-dimethylisoxazol-4-yl)-6-methoxy-2-methyl-9H-pyrimido[4,5-b]indol-4-yl)-5-methyl-3-phenylisoxazol-4-amine]
[1]
  IC50: 76 nM
[2]
  IC50: 380 nM
[3]
  IC50: 13 nM
[4]
  IC50: 171 nM

## COc1cc2c(cc1-c1c(C)noc1C)[nH]c1nc(C)nc(Nc3c(C)noc3C)c12 [Cpd. No. 215, N-(7-(3,5-dimethylisoxazol-4-yl)-6-methoxy-2-methyl-9H-pyrimido[4,5-b]indol-4-yl)-3,5-dimethylisoxazol-4-amine]
[1]
  IC50: 128 nM
[2]
  IC50: 360 nM
[3]
  IC50: 57 nM
[4]
  IC50: 318 nM

## COc1cc2c(cc1-c1c(C)noc1C)[nH]c1nc(C)nc(Nc3c(C)c(C4CC4)nn3C)c12 [Cpd. No. 147, N-(3-Cyclopropyl-1,4-dimethyl-1H-pyrazol-5-yl)-7-(3,5-dimethylisoxazol-4-yl)-6-methoxy-2-methyl-9H-pyrimido[4,5-b]indol-4-amine]
[1]
  IC50: 59.9 nM
[2]
  IC50: 319 nM
[3]
  IC50: 93.7 nM
[4]
  IC50: 201 nM

## COc1cc2c(cc1-c1c(C)noc1C)[nH]c1nc(C)nc(Nc3c(C)cnn3C3CC3)c12 [Cpd. No. 197, N-(1-cyclopropyl-4-methyl-1H-pyrazol-5-yl)-7-(3,5-dimethylisoxazol-4-yl)-6-methoxy-2-methyl-9H-pyrimido[4,5-b]indol-4-amine]
[1]
  IC50: 70.1 nM
[2]
  IC50: 511 nM
[3]
  IC50: 69.9 nM
[4]
  IC50: 357 nM

## CCc1nn(CC)c(CC)c1Nc1nc(C)nc2[nH]c3cc(-c4c(C)noc4C)c(OC)cc3c12 [Cpd. No. 241, 7-(3,5-dimethylisoxazol-4-yl)-6-methoxy-2-methyl-N-(1,3,5-triethyl-1H-pyrazol-4-yl)-9H-pyrimido[4,5-b]indol-4-amine]
[1]
  IC50: 16 nM
[2]
  IC50: 76 nM
[3]
  IC50: 29 nM
[4]
  IC50: 33 nM

## COc1cc2c(cc1-c1c(C)noc1C)[nH]c1nc(C)nc(Nc3cn(C)nc3C(C)(C)C)c12 [Cpd. No. 193, N-(3-(tert-butyl)-1-methyl-1H-pyrazol-4-yl)-7-(3,5-dimethylisoxazol-4-yl)-6-methoxy-2-methyl-9H-pyrimido[4,5-b]indol-4-amine]
[1]
  IC50: 3.6 nM
[2]
  IC50: 47.5 nM
[3]
  IC50: 2.7 nM
[4]
  IC50: 8.1 nM
